Results: patent publication US20260060982A1, “USE OF BTK INHIBITOR AND SINGLE-DOSE DRUG” (HUBEI BIO-PHARMACEUTICAL INDUSTRIAL TECHNOLOGICAL INSTITUTE …, priority 2023, published 2026)

Columns and labels:
[1] = Phase I single-dose clinical trial, safety and tolerability; type: in vivo, human; details: compound (I) group, all doses (n = 80)
Text: In this example, 96 healthy Chinese aged 18 to 45 were recruited as subjects. The trial included 8 dose groups, each with 12 subjects, who were randomly divided into groups, 10 of whom received compound (I) capsules (i.e., the trial group) and 2 received placebo capsules (containing no compound (I), i.e., the control group or placebo group). […] The dosages involved in this example were all the amount of compound (I). Based on safety and exploration factors, the human MRSD (maximum recommended starting dose) of compound (I) capsule used in the example was set at 10 mg, and the human maximum recommended dose was set at 800 mg. A total of 8 dose groups were set up between the initial dose and the maximum dose (see Table 2 for the dose escalation scheme of the clinical trial): 10 mg, 25 mg, 50 mg, 100 mg, 200 mg, 400 mg, 600 mg, and 800 mg, and single administration safety and tolerability trials were conducted group by group.
The subjects fasted for 10 h before administration and took a single oral administration of compound (I) capsule or placebo capsule at the prescribed dose on the morning of the trial day. Water was prohibited within 2 h after the administration and food was prohibited within 4 h after the administration. Blood sample collection: 3.0 ml of venous blood was collected before administration (within 45 min) and at 10 min, 20 min, 0.5 h, 1 h, 1.5 h, 1.75 h, 2 h, 2.5 h, 3 h, 3.5 h, 4 h, 6 h, 8 h, 12 h, 16 h, 24 h, 36 h, 48 h, and 72 h after administration. Urine sample collection: Urine samples were collected before administration (within 2 h) and at 0-2 h, 2-4 h, 4-8 h, 8-12 h, 12-16 h, 16-24 h, 24-48 h, and 48-72 h after administration. Feces collection: Feces were collected before administration (within 3 days) and at 0-24 h, 24-48 h, and 48-72 h after administration.
Safety data set: including all subjects who received at least one administration and had post-administration safety data. […]

BTK = BTK (Homo sapiens, UniProt Q06187); experiment: BTK target occupancy in peripheral blood mononuclear cells (ELISA), Phase I single-dose trial; type: in vivo; set-up: endogenous in cells; host or cells: human peripheral blood mononuclear cells (PBMCs) of trial subjects, lysate
Method: The receptor occupancy of compound (I) in human peripheral blood mononuclear cell lysate was detected by ELISA. The analysis method was to perform relative quantitative determination of BTK in human peripheral blood mononuclear cells (PBMCs) using ELISA.
PBMC lysate containing BTK was incubated with compound (I), with a control containing no compound (I), then incubated with biotinlated compound (I), and then added to a well plate pre-coated with streptavidin. When compound (I) was incubated with PBMC lysate, it was bound to BTK, thereby preventing BTK from binding to biotinylated compound (I). Since the complex cannot bind to the well plate, it was difficult to generate a response signal.
Rabbit anti-BTK primary antibody incubated with the above samples would bind to BTK. Tetramethylbenzidine (TMB) was the substrate of HRP coupled to the anti-rabbit secondary antibody. […] After color development, the absorbance was measured at a wavelength of 450 nm. […] The content of free BTK was proportional to the absorbance. In this way, the content of BTK can be indirectly detected. […]
The analysis was performed using the Per-protocol set. The differences in BTK target occupancy rate among the different dose groups was analyzed using the Chi-Square test; and the relationship between dose, plasma concentration, and BTK target occupancy rate was analyzed using Logistic Regression.

Chain of BTK (Q06187 whole entry): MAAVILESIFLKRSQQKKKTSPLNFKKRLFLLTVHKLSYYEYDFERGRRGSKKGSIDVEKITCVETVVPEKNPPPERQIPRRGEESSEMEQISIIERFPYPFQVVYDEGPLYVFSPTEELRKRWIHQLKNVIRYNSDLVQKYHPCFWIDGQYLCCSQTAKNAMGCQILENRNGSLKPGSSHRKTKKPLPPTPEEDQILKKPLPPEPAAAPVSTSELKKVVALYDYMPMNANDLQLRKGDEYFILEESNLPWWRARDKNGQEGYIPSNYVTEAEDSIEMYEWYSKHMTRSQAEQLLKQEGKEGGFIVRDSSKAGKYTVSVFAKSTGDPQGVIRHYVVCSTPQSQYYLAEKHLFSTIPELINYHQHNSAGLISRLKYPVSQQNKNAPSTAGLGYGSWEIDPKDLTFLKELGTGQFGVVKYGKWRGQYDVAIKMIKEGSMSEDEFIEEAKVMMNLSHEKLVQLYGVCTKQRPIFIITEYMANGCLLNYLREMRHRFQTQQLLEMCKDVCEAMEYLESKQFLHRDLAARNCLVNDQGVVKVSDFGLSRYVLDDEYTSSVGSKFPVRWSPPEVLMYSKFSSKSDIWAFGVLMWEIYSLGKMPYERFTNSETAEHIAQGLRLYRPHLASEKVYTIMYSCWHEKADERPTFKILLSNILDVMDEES

- maximum BTK target occupancy rate (BTK; single administration of 10 mg): 58.93%
- maximum BTK target occupancy rate (BTK; single administration of 25 mg or above): ~100%
SMILES: C=CC(=O)N1CCC[C@@H](n2nc(-c3ccc(Oc4ccccn4)cc3)c3c(N)n[nH]c(=O)c32)C1 [compound (I), (R)-1-(1-acryloylpiperidin-3-yl)-4-amino-3-(4-(pyridin-2-yloxy)phenyl)-1H-pyrazolo[3,4-d]pyridazin-7(6H)-one]
- subjects with TEAEs [1]: 25
- subjects with TEAEs, share [1]: 31.3%
- treatment-emergent adverse events (TEAE), number of events [1]: 35
